In brackets after ≈: the same amount, converted by molar mass.
Experiments:
[1] = system: thrombocyte aggregation in PRP of rabbits; assay: Inhibition of ADP-induced thrombocyte aggregation in PRP of rabbits upon in vivo administration; conditions: rabbit, 30 mg/kg oral, 2 hours after administration, *=statistically significant (p 0.05)
Experimental: (§1) A mixture of 0.8 ml of PRP and 0.1 ml of the active compound solution is preincubated for 10 minutes at 37° C. Thrombocyte aggregation is then determined by the turbidimetric method of Born [J. Physiol. (London) 162, 67 (1962)] in an aggregometer at 37° C. [see generally Therapeutische Berichte, 47, 80-86 (1975)]. An aggregation-initiating agent (0.1 ml) such as collagen or ADP is thus added to the preincubated sample. The change in the optical density in the sample of PRP is recorded over a period of 6 minutes and the percentage inhibition is then calculated from the integrated area or the deflection.
(§2) In carrying out these experiments, the compound is administered orally in a tragacanth suspension. The animals are then bled, 90 minutes (rats) or 2 hours (rabbits), after administration, and the PRP is isolated by centrifuging. After isolating the PRP, the measurement of the aggregation inhibition is conducted in vitro analogously to the process described for Table I, without however any preincubation of the samples. Three parts of the rat PRP are furthermore diluted with 1 part of physiological sodium chloride solution.

Rabbit PRP [2] = assay: In vitro ADP-induced thrombocyte aggregation inhibition, rabbit PRP; type: cell-based; conditions: Oryctolagus cuniculus, 10 min preincubation, 37° C.
Experimental: (§3) In vitro: Blood from healthy human test subjects of both sexes, and blood of rabbits and rats is used. One part of 3.8% strength aqueous sodium citrate solution, as an anticoagulant, is mixed with nine parts of blood. Centrifugation of this blood gives a platelet-rich citrate plasma (PRP); see generally Jurgens/Beller, Klinische Methoden der Blutgerinnungsanalyse, Thieme Verlag, Stuttgart (1959).
as §1
(§4) Table I presents ranges of concentration at which the thrombocyte aggregation is inhibited by a value of 50% utilizing 2-(2-diethylaminoethyl)-4,6-dimethyl-1,2-benzisothiazolin-3-one (as the 1,5-naphthalenedisulfonate hemisalt) [compound A].

Human PRP = assay: In vitro ADP-induced thrombocyte aggregation inhibition, human PRP; type: cell-based; conditions: 10 min preincubation, 37° C.
Experimental: as §3, §1, §4

[3] = system: thrombocyte aggregation in PRP of rats; assay: Inhibition of collagen-induced thrombocyte aggregation in PRP of rats upon in vivo administration; conditions: rat, 10 mg/kg oral, 90 minutes after administration, *=statistically significant (p 0.05)
Experimental: as §1, §2

[4] = system: thrombocyte aggregation in PRP of rabbits; assay: Inhibition of collagen-induced thrombocyte aggregation in PRP of rabbits upon in vivo administration; conditions: rabbit, 30 mg/kg oral, 2 hours after administration, *=statistically significant (p 0.05)
Experimental: as §1, §2

Rat PRP = assay: In vitro ADP-induced thrombocyte aggregation inhibition, rat PRP; type: cell-based; conditions: 10 min preincubation, 37° C.
Experimental: as §3, §1, §4

[5] = system: thrombocyte aggregation in PRP of rats; assay: Inhibition of ADP-induced thrombocyte aggregation in PRP of rats upon in vivo administration; conditions: rat, 30 mg/kg oral, 90 minutes after administration, *=statistically significant (p 0.05)
Experimental: as §1, §2

Rabbit PRP [6] = assay: In vitro collagen-induced thrombocyte aggregation inhibition, rabbit PRP; type: cell-based; conditions: Oryctolagus cuniculus, 10 min preincubation, 37° C.
Experimental: as §3, §1, §4

[7] = system: thrombus formation in left carotid artery of a rat; assay: Inhibition of thrombus formation in vivo (rat carotid artery); conditions: 30 mg/kg oral, immediately before the procedure, thrombus isolated 4 hours later
Experimental: In this experiment, the left carotid artery of a rat is exposed and cooled to minus 15° C. to stimulate thrombus formation. At the same time, the blood flow is reduced by means of a silver clip. The thrombus is isolated from the artery 4 hours later and is weighted. The table indicates the percentage reduction in weight of the thrombus when the test compound is administered immediately before the procedure.

ADP-induced aggregation [8] = assay: Activity in vivo at the tested doses (summary statement)
Experimental: as §2

ADP-induced aggregation [9] = assay: ADP-induced aggregation in vitro (summary statement); type: cell-based; conditions: relative to the compounds according to the invention
Experimental: as §3, §1

Structure (SMILES)	Percent inhibition (1) (integrated area) [1] [%]	Percent inhibition (2) (amplitude) [1] [%]	IC50 (Rabbit PRP [2]) [µg/mL]	IC50 (Human PRP) [µg/mL]	Percent inhibition (1) (integrated area) [3] [%]	Percent inhibition (2) (amplitude) [3] [%]	Percent inhibition (1) (integrated area) [4] [%]	Percent inhibition (2) (amplitude) [4] [%]	IC50 (Rat PRP) [µg/mL]	Percent inhibition (1) (integrated area) [5] [%]	Percent inhibition (2) (amplitude) [5] [%]	IC50 (Rabbit PRP [6]) [µg/mL]	Percentage inhibition (percentage reduction in weight of the thrombus) [7] [Percentage]	activity in vivo (ADP-induced aggregation [8])	activity in vitro (ADP-induced aggregation [9])
CC(=O)Oc1ccccc1C(=O)O [Acetylsalicylic acid]	15	6	> 10	> 100	31	35	63	58	> 10	15	27	–	–	–	–
CCN(CC)CCn1sc2cc(C)cc(C)c2c1=O [Compound A, 2-(2-diethylaminoethyl)-4,6-dimethyl-1,2-benzisothiazolin-3-one]	33	54	1 (≈ 3.59 µM)	–	72	71	74	72	1 (≈ 3.59 µM)	45	77	1 (≈ 3.59 µM)	48	–	–
OCCN(CCO)c1nc(N2CCCCC2)c2nc(N(CCO)CCO)nc(N3CCCCC3)c2n1 [Dipyridamol]	–	–	–	> 100	5	7	–	–	> 10	–	-23	–	17	inactive at the tested doses in vivo	substantially less active in vitro
O=C1C(CC[S+]([O-])c2ccccc2)C(=O)N(c2ccccc2)N1c1ccccc1 (centres unmarked) [Sulfinepyrazone]	–	–	–	> 100	-3	0	–	–	> 10	–	-5	–	–	inactive at the tested doses in vivo	substantially less active in vitro

— patent US4156729A, “1,2-Benzisothiazolin-3-ones” (Bayer Aktiengesellschaft, priority 1976, dated 1979)
